Test [1] has as its system ICAM-1. As to the kind of experiment: Cell surface ICAM-1 expression on HAEC by ELISA. In kind it is cell-based, human. As to conditions: for induction of cell surface ICAM expression: HAEC exposed 16 hr. Here is the method: In a small scale synthesis reaction, sLO converted 250 uM linoleic acid (LA) into 13-HpODE within the first hour of room temperature incubation. During the subsequent 3 days incubation, 13-HpODE presumably oxidatively modified the enzyme and generating epitopes on the enzyme which can elicit biological s activity such as the expression of cell surface ICAM on HAEC as shown in ELISA assay depicted in FIG. 11. […] In the large scale synthesis reaction, only in the presence of the 13-HpODE generating system did the sLO become active as shown in FIG. 12. sLO negative control represented the sLO enzyme incubated with buffer alone for the extended period of time. We have confirmed the oxSLO synthesized by either method are functionally and immunologically identical. Furthermore, we have determined that formation of a biologically activity is protein specific. Reaction of rabbit serum albumin using the large or small scale oxykine reaction generates immunoreactive but not biologically active products.
(§1) It was investigated whether the oxidative modification of rabbit serum albumin RSA by linoleic hydroperoxide alters the structural or biological property of an element (peptide or nonpeptide) in this material, conferring upon it a biological function as a vascular endothelial cell inflammatory signal. Using oxidatively modified RSA (oxRSA) prepared as described in Example 1, cultured human aortic endothelial cells were exposed for 12 hours with a range of oxRSA concentrations from 1 to 100 nM (nanomolar), and assayed for the cell surface expression of the inducible adhesion molecules VCAM-1, ICAM-1 or the constituitively expressed adhesion molecule ICAM-2 by ELISA assay. […] Furthermore, limulus assay for LPS in the oxRSA preparation was below detection. Constituitively expressed ICAM-2 was unaffected.

In test [2] the test system is ICAM-1. As to conditions: human aortic endothelial cells; cited from earlier work.
The next test deals with E-selectin. As to conditions: human aortic endothelial cells; cited from earlier work.
The subject of test [3] is VCAM-1. As to conditions: cited from earlier work; for induction of cell-surface expression of VCAM-1: human aortic endothelial cells.
For a further test, the system named is anti-LOOH/RSA antibody. As to the kind of experiment: ELISA recognition of modified proteins/peptides by anti-LOOH/RSA antibody. In kind it is binding, rabbit. As to the method: Using ELISA, it was investigated whether the LOOH/RSA antibody recognized the LOOH/modified protein and unmodified protein. Unmodified IgG-free RSA was used as control. incubation at 37° C., wells were washed with PBS three times. Goat anti-rabbit IgG conjugated with alkaline phosphatase was diluted to 1:38,000 and added. After 2 hrs incubation at 37 °C, wells were washed again and p-nitrophenolphosphate was added. Color development was determined by a plate reader (Anthos II).
Microtiter wells were coated with increasing concentrations of unmodified, or modified peptide. After blocking wells with non-fat milk powder, 100 μl of 1:250 dilution of anti-LOOH/RSA antibody was added to each well. After wash, anti-rabbit IgG conjugated with alkaline phosphatase was added to each well. After adding substrate p-nitrophenyl phosphate, the OD was measured at 405 nm using a microplate reader. Values represent averages of a triplicate set of optical density readings of wells from one of at least 2 separate trials. 20 Western blot analysis of the aldehyde- and LOOH-modified peptide confirmed that none of the aldehyde-modified synthetic proteins were recognized to any significant extent, whereas LOOH-modified peptide was recognized by the antibody.
Background: In an ELISA, binding on a coated surface is turned into a signal by an enzyme label.

The test system of the next test is ICAM-2. As to the kind of experiment: Cell surface ICAM-2 expression on HAEC by ELISA. The class given is cell-based, human. As to conditions: 12 hours. Here is the method: as §1
In the next test the test system is ICAM-1 mRNA. As to the kind of experiment: Northern blot ICAM-1 mRNA accumulation in HAEC. The class given is cell-based, human. As to the method: (§2) The ELISA data is supported by the Northern Blot data as illustrated in FIG. 15. […] Within 2-6 hr of stimulation, the mRNA level of the indicated genes all reached a steady state.
(§3) It was next investigated whether the induction of VCAM-1 and ICAM-1 cell surface expression by ox-RSA is due at least in part to changes in mRNA accumulation. Northern filter analysis was performed from RNA isolated from HAEC exposed for 4 hours With either TNFa (100 U/ml) or oxRSA (25 nM). Similar to that observed at the protein level, VCAM-mRNA levels were induced by ox-RSA to levels approximately 30-40% observed for TNFa.

For another test, the system named is VCAM-1 mRNA. Description: Northern blot VCAM-1 mRNA accumulation in HAEC. The class given is cell-based, human. Here is the method: as §2, §3
For test [4], the system named is NF-kB like DNA binding activity. Description: Gel mobility shift assay, NF-kB-like binding sites of VCAM-1 promoter. The class given is cell-based, human. As to conditions: HAEC, two hours; TNFa 100 U/ml or oxRSA 25 nM. As to the method: To determine whether oxRSA modulated nuclear regulatory events associated with redox sensitive VCAM-1 gene expression, cultured human aortic endothelial cells were exposed or not (CTL) for two hours to TNFa (100 U/ml) or 25 nM of the oxykine RSA-LOOH (oxRSA), nuclear extracts prepared and gel mobility shift assays performed using 32P-labeled kL0kR, the tandem NF-kB-like binding sites of the human VCAM-1 promoter. Appropriate cold competitor and supershift controls using anti-p50 and anti-p65 antisera (R&D Systems) were performed to establish the DNA sequence binding specificity of the NF-kB complex band. Both TNF and oxRSA inducted NF-kB like DNA binding activity.

The subject of test [5] is VCAM-1. Description: Cell surface VCAM-1 expression on HAEC by ELISA. In kind it is cell-based, human.
Description: as §2, §1

The next test has as its system MCP-1 mRNA. As to the kind of experiment: Northern blot MCP-1 mRNA accumulation in HAEC. The class given is cell-based, human.
Description: as §2

Where [6] appears, read: VCAM-1 and ICAM-1 induction, polymyxin B 10 ug/ml.

For orientation: EC50 means the concentration giving half of the maximal effect.

Consider `O=C(O)CN(CCN(CC(=O)O)CC(=O)O)CC(=O)O` [EDTA], for which the “effect of addition on ICAM-1 induction by the oxykine” value (“effect of addition” below) in the test on ICAM-1 [1] was “no effect”.
Consider `CCCCC/C=C\C/C=C\CCCCCCCC(=O)O` [LA, linoleic acid], for which the “induction of cell-surface expression of ICAM-1” value with ICAM-1 [2] was “not”. In the test with E-selectin, the “induction of cell-surface expression of E-selectin” value (“induction … of E-selectin” below) is recorded as “not”. Also, the “induction of cell-surface expression of VCAM-1” value in the test on VCAM-1 [3] is “induce”. Besides, the “induction of cell surface ICAM expression” value in the test with ICAM-1 [1] is “did not become active”.
Consider `S=C(S)N1CCCC1` [PDTC, pyrrolidine dithiocarbamate], for which, in the test with VCAM-1 [3], the “effect on induction of VCAM-1 by PUFAs and their fatty acid hydroperoxides” value is on record as “suppressed”.
For the molecule `Cc1c(C)c2c(c(C)c1O)CCC(C)(C(=O)O)O2` (centres unmarked) [Trolox], the “effect of addition” value in the test with ICAM-1 [1] is listed as “no effect”.
For the molecule `CCCCC/C=C\C/C=C\C/C=C\C/C=C\CCCC(=O)O` [arachidonic acid], the “induction of cell-surface expression of ICAM-1” value with ICAM-1 [2] was “not”. The “induction … of E-selectin” value in the test on E-selectin was “not”. The “induction of cell-surface expression of VCAM-1” value in the test on VCAM-1 [3] was “induce”.
Consider `CCCCCCCC/C=C\CCCCCCCC(=O)O` [oleic acid], for which the “induction of cell-surface expression of ICAM-1” value in the test on ICAM-1 [2] is given as “do not induce”. Further, in the test with E-selectin, the “induction … of E-selectin” value is on record as “do not induce”. Further, in the test on VCAM-1 [3], the “induction of cell-surface expression of VCAM-1” value was “do not induce”.
Consider `CC(C)(Sc1cc(C(C)(C)C)c(O)c(C(C)(C)C)c1)Sc1cc(C(C)(C)C)c(O)c(C(C)(C)C)c1` [probucol], for which the “effect of addition” value with ICAM-1 [1] is “no effect”.
Turning to `CCCCCCCCCCCCCCCCCC(=O)O` [stearic acid], the “induction of cell-surface expression of ICAM-1” value with ICAM-1 [2] is on record as “do not induce”. Moreover, the “induction … of E-selectin” value with E-selectin is “do not induce”. Besides, the “induction of cell-surface expression of VCAM-1” value in the test with VCAM-1 [3] is listed as “do not induce”.
For “RSA: unmodified IgG-free rabbit serum albumin used as control”, in the test with anti-LOOH/RSA antibody, the “recognition by the antibody in ELISA” value is “barely recognized”.
Turning to “YVTKSYNETKIKFDKYKAKSHEDEL [Native peptide]”, the “recognition by the antibody in ELISA” value with anti-LOOH/RSA antibody is given as “failed to recognize”.
Turning to linoleyl 194 hydroperoxide, in the test on ICAM-1 [2], the “induction of cell-surface expression of ICAM-1” value is reported as “not”. Further, in the test with E-selectin, the “induction … of E-selectin” value is recorded as “not”. In the test on VCAM-1 [3], the “induction of cell-surface expression of VCAM-1” value was “induce”.
As to “oxRSA: rabbit serum albumin oxidatively modified by linoleic hydroperoxide (13-HPODE), Example 1”, in the test on ICAM-2, the “effect on constitutively expressed ICAM-2” value was “unaffected”. Besides, the “ICAM-1 mRNA induction” value in the test with ICAM-1 mRNA (4 hours, 25 nM) is “induced”. In addition, the “VCAM-mRNA level relative to that observed for TNFa” value in the test on VCAM-1 mRNA (4 hours, 25 nM, TNFa 100 U/ml) is reported as 30-40%. Further, the “concentration corresponding to least amount recognized” value in the test on anti-LOOH/RSA antibody is reported as less than 2 nM. Moreover, in the test with anti-LOOH/RSA antibody (antibody 1:250, above control protein), the “least amount recognized by the antibody” value is listed as 10 ng. The “NF-kB like DNA binding activity” value in test [4] is on record as “inducted”. The “induction of VCAM-1 as percent of maximal TNF-a induced signal” value in the test on VCAM-1 [5] (HAEC, 12 hours, 1 to 100 nM) stood at 40%. Also, the EC50 lay in the range of 10 to 15 nM in the test on VCAM-1 [5] (HAEC, 12 hours, read-out: approximate EC50 for VCAM-1 induction) and 10 to 15 nM in the test with ICAM-1 [1] (HAEC, 12 hours, read-out: approximate EC50 for ICAM-1 induction). Also, the “induction of ICAM-1 as percent of maximal TNF-a induced signal” value in the test with ICAM-1 [1] (HAEC, 12 hours, 1 to 100 nM) is reported as 80%.
With polymyxin B, in the test on VCAM-1 [5] (setting [6]), the “effect on LPS induction” value was “fully inhibited” and the “effect on oxRSA activation” value is listed as “no effect”.

B1: soybean lipoxygenase (protein, UniProt P08170 1-839, looked up)
Seed linoleate …: MFSAGHKIKGTVVLMPKNELEVNPDGSAVDNLNAFLGRSVSLQLISATKADAHGKGKVGKDTFLEGINTSLPTLGAGESAFNIHFEWDGSMGIPGAFYIKNYMQVEFFLKSLTLEAISNQGTIRFVCNSWVYNTKLYKSVRIFFANHTYVPSETPAPLVSYREEELKSLRGNGTGERKEYDRIYDYDVYNDLGNPDKSEKLARPVLGGSSTFPYPRRGRTGRGPTVTDPNTEKQGEVFYVPRDENLGHLKSKDALEIGTKSLSQIVQPAFESAFDLKSTPIEFHSFQDVHDLYEGGIKLPRDVISTIIPLPVIKELYRTDGQHILKFPQPHVVQVSQSAWMTDEEFAREMIAGVNPCVIRGLEEFPPKSNLDPAIYGDQSSKITADSLDLDGYTMDEALGSRRLFMLDYHDIFMPYVRQINQLNSAKTYATRTILFLREDGTLKPVAIELSLPHSAGDLSAAVSQVVLPAKEGVESTIWLLAKAYVIVNDSCYHQLMSHWLNTHAAMEPFVIATHRHLSVLHPIYKLLTPHYRNNMNINALARQSLINANGIIETTFLPSKYSVEMSSAVYKNWVFTDQALPADLIKRGVAIKDPSTPHGVRLLIEDYPYAADGLEIWAAIKTWVQEYVPLYYARDDDVKNDSELQHWWKEAVEKGHGDLKDKPWWPKLQTLEDLVEVCLIIIWIASALHAAVNFGQYPYGGLIMNRPTASRRLLPEKGTPEYEEMINNHEKAYLRTITSKLPTLISLSVIEILSTHASDEVYLGQRDNPHWTSDSKALQAFQKFGNKLKEIEEKLVRRNNDPSLQGNRLGPVQLPYTLLYPSSEEGLTFRGIPNSISI
notes: unmodified soybean lipoxygenase, negative control
Take B1: the results for the “ICAM-1 mRNA” value in the test on ICAM-1 mRNA (0.008 ug/ml), in the test on ICAM-1 mRNA (0.08 ug/ml) and in the test with ICAM-1 mRNA (0.8 ug/ml) were −0.51 arbitrary units, −0.09 arbitrary units and 3.14 arbitrary units, respectively. Moreover, the “VCAM-1 mRNA” value in the test on VCAM-1 mRNA (0.008 ug/ml) is −0.14 arbitrary units; in the test with VCAM-1 mRNA (0.08 ug/ml), 0.12 arbitrary units; in the test on VCAM-1 mRNA (0.8 ug/ml) it was 3.36 arbitrary units. Besides, the “VCAM mRNA accumulation” value in the test on VCAM-1 mRNA (Northern blot, 4 hr) is “not”. Besides, the “induction of cell surface ICAM expression” value is reported as “did not become active” in the test on ICAM-1 [1] and “failed to activate” in the test on ICAM-1 [1] (listed as unmodified sLO). For the same molecule, the “MCP-1 mRNA” value with MCP-1 mRNA (0.008 ug/ml) was 1.12 arbitrary units; with MCP-1 mRNA (0.08 ug/ml), 3.1 arbitrary units; in the test on MCP-1 mRNA (0.8 ug/ml), 12.34 arbitrary units. In addition, the “MCP-1 mRNA accumulation” value in the test with MCP-1 mRNA (Northern blot) is reported as “not”.

The values are drawn from patent US20020052000A1, “Diagnostics for and mediators of inflammatory disorders” (priority 1996, published 2002).
